26 compounds from patent US5902812A, “Pharmaceutical piperazine compounds” (Xenova Limited, priority 1994, dated 1999) can be followed below.

Structures can show the parent of a compound that is named as a salt. Where two headings read alike, the source gives them in different places.

This test concerns the target PAI-1 (Homo sapiens, UniProt P05121). Description: biochemical. As to conditions: for inhibition at 6.25 µM / inhibition at 12.5 µM / inhibition at 25 µM / inhibition at 50 µM / inhibition at 100 µM / inhibition at 20 µM: read-out: Degree of inhibition in PAI chromogenic substrate assay.
Where [1] appears, read: PAI chromogenic substrate assay, read-out: IC50.

Chain of PAI-1 (P05121 24-402): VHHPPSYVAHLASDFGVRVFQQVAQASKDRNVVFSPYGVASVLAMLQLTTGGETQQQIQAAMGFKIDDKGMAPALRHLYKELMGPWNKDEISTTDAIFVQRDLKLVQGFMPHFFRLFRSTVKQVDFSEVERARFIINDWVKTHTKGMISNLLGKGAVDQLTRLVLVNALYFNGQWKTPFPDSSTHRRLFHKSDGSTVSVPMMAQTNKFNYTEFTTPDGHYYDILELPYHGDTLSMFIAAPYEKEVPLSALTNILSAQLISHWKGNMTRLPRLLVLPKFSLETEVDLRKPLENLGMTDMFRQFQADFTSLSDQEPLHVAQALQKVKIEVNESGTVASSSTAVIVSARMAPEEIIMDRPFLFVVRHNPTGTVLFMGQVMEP
Description: In this assay, a compound is incubated with PAI-1 prior to addition to the tPA assay system. Inhibition of PAI-1 results in the production of plasmin from plasminogen. In turn, plasmin cleaves the chromogenic substrate S2251 (Kabi Vitrum) producing pNA (p-nitroaniline) which is detected spectrophotometrically at 405 nm (K. Nilsson et al, Fibrinolysis (1987) 1, 163-168).
Compounds of formula (A) were tested in a PAI chromogenic substrate assay. In the assay (K.Nilsson, Fibrinolysis (1987) 1, 163-168) each compound was incubated with PAI-1 prior to addition to the tPA assay system. […] In turn, the plasmin cleaved the chromogenic substrate S2251 (Kabi-Vitrum) producing pNA (p-nitroaniline) which was detected spectrophotometrically at 405 nm.

With `COc1ccc(/C=c2\[nH]c(=O)/c(=C/c3ccc(OCCN(C)C)cc3)[nH]c2=O)cc1` [Compound 1911], where the note is “6.25 μM”, the inhibition (commonly the share of the control response that was lost under treatment) at 6.25 µM was 13%. Moreover, the inhibition at 12.5 µM (12.5 μM) amounted to 20%. The inhibition at 25 µM (25 μM) was 15%. The inhibition at 50 µM (50 μM) is 23%. In addition, where the note is “100 μM”, the inhibition at 100 µM amounted to 38%.

Consider `CN(C)CCCOc1ccc(/C=c2\[nH]c(=O)/c(=C/c3ccc(C(=O)NCCc4ccccc4)cc3)[nH]c2=O)cc1` [Compound 5345, N-Phenethyl-4-((3Z,6Z)-6-(4-(3-Dimethylaminopropoxy)benzylidene)-2,5-dioxo-3-piperazinylidene)methylbenzamide], for which, under “20 μM (third part of Table 1)”, the inhibition at 20 µM was determined as 39%.

`COc1ccc(/C=c2\[nH]c(=O)/c(=C/c3ccc(OC(=O)CC(C)(C)C)cc3)[nH]c2=O)cc1` [Compound 1885, (3Z,6Z)-3-(4-(3,3-dimethylbutanoyloxy)benzylidene)-6-(4-methoxybenzylidene)-2,5-piperazinedione]: under “6.25 μM”, the inhibition at 6.25 µM stood at 0%. Moreover, the inhibition at 12.5 µM (12.5 μM) amounted to 0%. Moreover, the inhibition at 25 µM (25 μM) came out at 2%. Besides, the inhibition at 50 µM (50 μM) was 31%. In addition, the inhibition at 100 µM (100 μM) was determined as 54%.

In the case of `CN(C)CCCOc1ccc(/C=c2\[nH]c(=O)/c(=C/c3cc([N+](=O)[O-])cc([N+](=O)[O-])c3)[nH]c2=O)cc1` [Compound 5381, (3Z,6Z)-6-(4-(3-Dimethylaminopropoxy)benzylidene)-3-(3,5-dinitrobenzylidene)-2,5-piperazinedione], where the note is “IC50, PAI chromogenic substrate assay”, 15 µM corresponded to half-maximal inhibition (IC50).

As to `CC(=O)Nc1ccccc1/C=c1\[nH]c(=O)/c(=C/c2ccc(OCCCN(C)C)cc2)[nH]c1=O` [Compound 5259], the inhibition at 20 µM (20 μM (third part of Table 1)) amounted to 10%.

For the compound `CN(C)CCCOc1ccc(/C=c2\[nH]c(=O)/c(=C/c3cccc([N+](=O)[O-])c3)[nH]c2=O)cc1` [Compound 5209, (3Z,6Z)-6-(4-(3-Dimethylaminopropoxy)benzylidene)-3-(3-nitrobenzylidene)-2,5-piperazinedione], the half-maximal inhibitory concentration (IC50) (usually the concentration that inhibits the measured activity by half) under setting [1] is 1.4 µM.

As to `CCCCOc1ccc(/C=c2\[nH]c(=O)/c(=C/c3ccc(OCCCN(C)C)cc3)[nH]c2=O)cc1` [Compound 5250], where the note is “20 μM (third part of Table 1)”, the inhibition at 20 µM is 10%. The inhibition at 100 µM (100 μM (third part of Table 1)) was 25%. The half-maximal inhibitory concentration (IC50) under setting [1] came out at 14 µM.

Consider `CN(C)CCOc1ccccc1/C=c1\[nH]c(=O)/c(=C/c2ccccc2)[nH]c1=O` [Compound 1979, (3Z,6Z)-Benzylidene-3-(2-(2-dimethylaminoethoxy)benzylidene)-2,5-piperazinedione], for which, for the setting “6.25 μM”, the inhibition at 6.25 µM was found to be 0%. The Degree of inhibition in PAI chromogenic substrate assay (100 μM) was determined as 37%.

`CN(C)CCCOc1ccc(/C=c2\[nH]c(=O)/c(=C/c3cccc(F)c3)[nH]c2=O)cc1` [Compound 5373, (3Z,6Z)-6-(4-(3-Dimethylaminopropoxy)benzylidene)-3-(3-fluorobenzylidene)-2,5-piperazinedione]: the half-inhibitory concentration (IC50) under setting [1] stood at 13 µM.

With `CN(C)CCCOc1ccc(/C=c2\[nH]c(=O)/c(=C/c3ccc(C(F)(F)F)cc3)[nH]c2=O)cc1` [Compound 5239, (3Z,6Z)-3-(4-(3-Dimethylaminopropoxy)benzylidene)-6-(4-trifluoromethylbenzylidene)-2,5-piperazinedione], the inhibition at 20 µM (20 μM (third part of Table 1)) is 65%. Moreover, the inhibition at 100 µM (100 μM (third part of Table 1)) worked out at 68%. Moreover, the half-maximal inhibitory concentration (IC50) under setting [1] was 7 µM.

In the case of `CN(C)CCOCc1ccc(/C=c2\[nH]c(=O)/c(=C/c3ccccc3Br)[nH]c2=O)cc1` [Compound 5070.HCl, (3Z,6Z)-3-(2-Bromobenzylidene)-6-(4-(2-dimethylaminoethoxymethyl)benzylidene)-2,5-piperazinedione], the inhibition at 20 µM (20 μM (third part of Table 1)) is 6%. Further, the inhibition at 50 µM (50 μM (third part of Table 1)) is 6%. In addition, under “100 μM (third part of Table 1)”, the inhibition at 100 µM came out at 40%.

For `CN(C)CCOc1ccc(/C=c2\[nH]c(=O)/c(=C/c3ccc(OCCN(C)C)cc3)[nH]c2=O)cc1` [Compound 1962, (3Z,6Z)-3,6-Di-(4-(2-dimethylaminoethoxy)benzylidene)-2,5-piperazinedione dihydrochloride], the inhibition at 6.25 µM (6.25 μM) amounted to 1%. The inhibition at 12.5 µM (12.5 μM) is 1%. Also, the inhibition at 25 µM (25 μM) was determined as 1%. Also, the inhibition at 50 µM (50 μM) came out at 2%. Also, the inhibition at 100 µM (100 μM) amounted to 2%.

As for `CN(C)CCSCc1ccc(/C=c2\[nH]c(=O)/c(=C/c3ccccc3Br)[nH]c2=O)cc1` [Compound 5080.HCl, (3Z,6Z)-3-(2-Bromobenzylidene)-6-(4-(2-Dimethylaminoethylthiomethyl)benzylidene)-2,5-piperazinedione], the inhibition at 20 µM (20 μM (third part of Table 1)) amounted to 10%. The inhibition at 50 µM (50 μM (third part of Table 1)) was determined as 48%. The inhibition at 100 µM (100 μM (third part of Table 1)) is 62%.

On to `CN(C)CCCOc1ccc(/C=c2\[nH]c(=O)/c(=C/c3ccc(Cl)c([N+](=O)[O-])c3)[nH]c2=O)cc1` [Compound 5398, (3Z,6Z)-3-(4-Chloro-3-nitrobenzylidene)-6-(4-(3-dimethylaminopropoxy)benzylidene)-2,5-piperazinedione], for which the inhibition at 20 µM (20 μM (third part of Table 1)) is 54%. Further, under setting [1], the IC50 came to 4.2 µM.

The compound `CN(C)CCCOc1ccc(/C=c2\[nH]c(=O)/c(=C/c3ccc(C(N)=O)cc3)[nH]c2=O)cc1` [Compound 5246, 4-((3Z,6Z)-6-(4-(3-Dimethylaminopropoxy)benzylidene)-2,5-dioxo-3-piperazinylidene)methylbenzamide] had a Degree of inhibition in PAI chromogenic substrate assay (20 μM (third part of Table 1), 20 µM) of 34%.

As for `CN(C)CCCOc1ccc(/C=c2\[nH]c(=O)/c(=C/c3ccccc3)[nH]c2=O)cc1` [Compound 1852, (3Z,6Z)-6-Benzylidene-3-(4-(3-dimethylaminopropoxy)benzylidene)-2,5-piperazinedione], for the setting “6.25 μM”, the inhibition at 6.25 µM came to 4%. For the same compound, under “12.5 μM”, the inhibition at 12.5 µM came to 67%. The inhibition at 25 µM (25 μM) turned out to be 74%. For the same compound, for the setting “50 μM”, the inhibition at 50 µM turned out to be 71%. Also, the inhibition at 100 µM (100 μM) was determined as 72%.

`CN(C)CCOc1ccc(/C=c2\[nH]c(=O)/c(=C/c3c(Cl)cccc3Cl)[nH]c2=O)cc1` [Compound 1980, (3Z,6Z)-3-(2,6-Dichlorobenzylidene)-6-(4-(2-dimethylaminoethoxy)benzylidene)-2,5-piperazinedione]: the Degree of inhibition in PAI chromogenic substrate assay stood at 0% (6.25 μM); 13% (12.5 μM); 51% (25 μM); 41% (50 μM); 66% (100 μM).

`CN(C)CCCOc1ccc(/C=c2\[nH]c(=O)/c(=C/c3ccccc3Br)[nH]c2=O)cc1` [Compound 5060.HCl, (3Z,6Z)-3-(2-Bromobenzylidene)-6-(4-(3-dimethylaminopropoxy)benzylidene)-2,5-piperazinedione]: under “20 μM (third part of Table 1)”, the inhibition at 20 µM turned out to be 52%. Also, the inhibition at 50 µM (50 μM (third part of Table 1)) worked out at 65%. Also, for the setting “100 μM (third part of Table 1)”, the inhibition at 100 µM stood at 75%.

For the compound `CN(C)CCCOc1ccc(/C=c2\[nH]c(=O)/c(=C/c3cccc([N+](=O)[O-])c3)[nH]c2=O)cc1` [Compound 5231, (3Z,6Z)-6-(4-(3-Dimethylaminopropoxy)benzylidene)-3-(3-nitrobenzylidene)-2,5-piperazinedione], the inhibition at 20 µM (20 μM (third part of Table 1)) was found to be 42%. Moreover, the inhibition at 100 µM (100 μM (third part of Table 1)) came to 36%. The IC50 under setting [1] turned out to be 1.5 µM.

Turning to `CN(C)CCCOc1ccc(/C=c2\[nH]c(=O)/c(=C/c3ccccc3[N+](=O)[O-])[nH]c2=O)cc1` [Compound 5210, (3Z,6Z)-6-(4-(3-Dimethylaminopropoxy)benzylidene)-3-(2-nitrobenzylidene)-2,5-piperazinedione], the IC50 under setting [1] is 67 µM.

Take `CN(C)CCCOc1ccc(/C=c2\[nH]c(=O)/c(=C/c3ccc(C#N)cc3)[nH]c2=O)cc1` [Compound 5245]: under setting [1], the half-maximal inhibitory concentration (IC50) worked out at 1.8 µM.

Turning to `CN(C)CCCOc1ccc(/C=c2\[nH]c(=O)/c(=C/c3ccc4c(c3)OCO4)[nH]c2=O)cc1` [Compound 5201, (3Z,6Z)-6-(4-(3-Dimethylaminopropoxy)benzylidene)-3-(3,4-methylenedioxybenzylidene)-2,5-piperazinedione], under “20 μM (third part of Table 1)”, the inhibition at 20 µM is 43%. Under “100 μM (third part of Table 1)”, the inhibition at 100 µM amounted to 47%. Besides, the IC50 under setting [1] was 2.5 µM.

Regarding `CN(C)CCOc1ccc(/C=c2\[nH]c(=O)/c(=C/c3ccccc3)[nH]c2=O)cc1` [Compound 1908, (3Z,6Z)-3-Benzylidene-6-(4-(2-dimethylaminoethoxy)benzylidene)-2,5-piperazinedione], the Degree of inhibition in PAI chromogenic substrate assay by setting is: (6.25 μM) 12%; (12.5 μM) 29%; (25 μM) 66%; (50 μM) 69%; (100 μM) 74%.

Consider `CN(C)CCCOc1ccc(/C=c2\[nH]c(=O)/c(=C/c3ccc4c(c3)OCO4)[nH]c2=O)cc1` [Compound 5229, (3Z,6Z)-6-(4-(3-Dimethylaminopropoxy)benzylidene)-3-(3,4-methylenedioxybenzylidene)-2,5-piperazinedione], for which, under setting [1], the half-maximal inhibitory concentration (IC50) worked out at 3.7 µM.

For the compound `CN(C)CCOc1ccc(/C=c2\[nH]c(=O)/c(=C/c3ccccc3)[nH]c2=O)cc1OCCN(C)C` [Compound 1949, (3Z,6Z)-3-Benzylidene-6-(3,4-di-(2-dimethylaminoethoxy)benzylidene)-2,5-piperazinedione], the Degree of inhibition in PAI chromogenic substrate assay worked out at 1% (6.25 μM); 1% (12.5 μM); 1% (25 μM); 1% (50 μM); 3% (100 μM).

Regarding `CN(C)CCCOc1ccc(/C=c2\[nH]c(=O)/c(=C/c3ccccc3C(F)(F)F)[nH]c2=O)cc1` [Compound 5251, (3Z,6Z)-6-(4-(3-Dimethylaminopropoxy)benzylidene)-3-(2-trifluoromethylbenzylidene)-2,5-piperazinedione], the inhibition at 100 µM (100 μM (third part of Table 1)) is 71%. The half-maximal inhibitory concentration (IC50) under setting [1] came to 67 µM.
